# Laboratory results from patent US10188704B2, “Enhanced melanoma cancer prevention by novel melanotropins” (ARIZONA BOARD OF REGENTS ON BEHALF OF THE UNIVERSITY OF …, priority 2015, dated 2019).
# Where two headings read alike, the source gives them in different places.
# Experiments:
# [1] = target: T1, hMC1R (Homo sapiens, UniProt Q01726); assay: Competition binding assay with [125I]-NDP-α-MSH, whole HEK293 cells expressing hMC1R; details: for IC50 / MC1R % BE (Percent Binding Efficiency): Table 4; for IC50: 50% specific binding (N = 4), NB = 0% of 125I-NDP-α-MSH displacement observed at 10 μM, read-out: MC1R IC50; for MC1R % BE (Percent Binding Efficiency): maximal % of 125I-NDP-α-MSH displacement observed at 10 μM; for selectivity towards hMC1R (binding, versus hMC3R, hMC4R, hMC5R): statement in words, refers to Table 4
# T1 construct: expressed in transfected cells; host or cells: HEK293
# T1 sequence (Q01726 whole entry): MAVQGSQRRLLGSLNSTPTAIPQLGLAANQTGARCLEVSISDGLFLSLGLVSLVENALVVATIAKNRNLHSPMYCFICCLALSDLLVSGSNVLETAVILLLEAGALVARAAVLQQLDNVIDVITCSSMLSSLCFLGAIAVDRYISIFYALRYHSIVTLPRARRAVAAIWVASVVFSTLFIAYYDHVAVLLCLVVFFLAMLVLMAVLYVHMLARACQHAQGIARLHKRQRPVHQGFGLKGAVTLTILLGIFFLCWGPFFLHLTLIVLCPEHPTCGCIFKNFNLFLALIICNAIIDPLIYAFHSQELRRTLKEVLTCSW
# Description: (§1) Competition binding experiments were carried out using both of cloned cell line and melanoma cells (A375, ATCC). The whole HEK293 cells were stably expressing human MC1, MC3, MC4, and MC5 receptors. HEK293 cells transfected with hMCRs were seeded on 96-well plates 48 hours before assay (50,000 cells/well). For the assay, the cell culture medium was aspirated and the cells were washed once with a freshly prepared minimum essencial medium (MEM) buffer containing 100% minimum essential medium with Earle's salt (MEM, GIBCO), and 25 mM sodium bicarbonate. […] The assay medium was subsequently removed, the cells were washed once with basic medium, and then lysed by the addition of 100 μL of 0.1M NaOH and 100 μL of 1% Triton X-100.
# (§2) IC50 values represent the mean of two experiments performed in triplicate. IC50 and EC50 estimates and their associated standard errors were determined by fitting the data using a nonlinear least squares analysis, with the help of GraphPad Prism 5 (GraphPad Software, San Diego, Calif.).
# [2] = target: T2, hMC3R (Homo sapiens, UniProt P41968); assay: Competition binding assay with [125I]-NDP-α-MSH, whole HEK293 cells expressing hMC3R; set-up: expressed in transfected cells; host or cells: HEK293; details: for MC3R % BE (Percent Binding Efficiency): maximal % of 125I-NDP-α-MSH displacement observed at 10 μM
# T2 sequence (P41968 whole entry): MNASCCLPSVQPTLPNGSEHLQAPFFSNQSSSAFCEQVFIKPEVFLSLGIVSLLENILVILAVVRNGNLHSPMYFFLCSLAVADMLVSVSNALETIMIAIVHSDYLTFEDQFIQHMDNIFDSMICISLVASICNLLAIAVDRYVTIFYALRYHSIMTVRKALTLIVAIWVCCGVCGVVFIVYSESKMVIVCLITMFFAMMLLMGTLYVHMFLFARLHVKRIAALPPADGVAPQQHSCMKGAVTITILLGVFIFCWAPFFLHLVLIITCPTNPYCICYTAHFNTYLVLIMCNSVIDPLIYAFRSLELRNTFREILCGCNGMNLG
# Description: as §1, §2
# [3] = target: T3, hMC4R (Homo sapiens, UniProt P32245); assay: Competition binding assay with [125I]-NDP-α-MSH, whole HEK293 cells expressing hMC4R; set-up: expressed in transfected cells; host or cells: HEK293; details: for MC4R % BE (Percent Binding Efficiency): maximal % of 125I-NDP-α-MSH displacement observed at 10 μM
# T3 sequence (P32245 whole entry): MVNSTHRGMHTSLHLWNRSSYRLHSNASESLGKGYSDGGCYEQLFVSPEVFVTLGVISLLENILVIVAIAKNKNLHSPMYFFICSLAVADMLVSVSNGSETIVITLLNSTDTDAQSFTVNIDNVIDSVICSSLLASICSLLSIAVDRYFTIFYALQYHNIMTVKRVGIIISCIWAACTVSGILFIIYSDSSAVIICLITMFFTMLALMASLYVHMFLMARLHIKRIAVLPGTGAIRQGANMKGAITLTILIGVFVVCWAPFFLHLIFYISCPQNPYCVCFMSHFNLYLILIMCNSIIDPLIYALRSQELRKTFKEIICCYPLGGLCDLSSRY
# Description: as §1, §2
# [4] = target: T4, hMC5R (Homo sapiens, UniProt P33032); assay: Competition binding assay with [125I]-NDP-α-MSH, whole HEK293 cells expressing hMC5R; set-up: expressed in transfected cells; host or cells: HEK293; details: for MC5R % BE (Percent Binding Efficiency): maximal % of 125I-NDP-α-MSH displacement observed at 10 μM
# T4 sequence (P33032 whole entry): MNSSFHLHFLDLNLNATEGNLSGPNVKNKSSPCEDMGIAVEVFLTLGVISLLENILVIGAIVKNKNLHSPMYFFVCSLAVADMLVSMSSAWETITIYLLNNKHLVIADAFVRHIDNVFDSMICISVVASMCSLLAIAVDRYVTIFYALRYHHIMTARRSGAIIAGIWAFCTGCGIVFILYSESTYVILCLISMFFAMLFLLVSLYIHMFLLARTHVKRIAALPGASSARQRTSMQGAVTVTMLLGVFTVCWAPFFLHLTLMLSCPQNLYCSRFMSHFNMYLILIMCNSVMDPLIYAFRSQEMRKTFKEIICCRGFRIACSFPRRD
# Description: as §1, §2
# [5] = target: T1, hMC1R; assay: cAMP assay (intracellular cAMP accumulation) at hMC1R; type: cell-based; details: Table 2; cAMP activity; read-out: hMC1R % max effect
# Description: (§3) IC50 and EC50 estimates and their associated standard errors were determined by fitting the data using a nonlinear least squares analysis, with the help of GraphPad Prism 5 (GraphPad Software, San Diego, Calif.).
# [6] = in vitro; type: in vitro ADME
# [7] = target: T2, hMC3R; assay: cAMP assay (intracellular cAMP accumulation) at hMC3R; type: cell-based; set-up: expressed in transfected cells; details: Table 2; for EC50: 50% maximal intracellular cAMP accumulation (N = 4), tested 10^-10 to 10^-5 M
# Description: as §3
# [8] = target: T4, hMC5R; assay: cAMP assay (intracellular cAMP accumulation) at hMC5R; type: cell-based; set-up: expressed in transfected cells; details: Table 2; for Emax: cAMP activity, read-out: hMC5R % max effect
# Description: as §3
# [9] = target: T3, hMC4R; assay: cAMP assay (intracellular cAMP accumulation) at hMC4R; type: cell-based; set-up: expressed in transfected cells; details: Table 2; for Emax: cAMP activity, read-out: hMC4R % max effect
# Description: as §3
# [10] = Table 4, 50% specific binding (N = 4), NB = 0% of 125I-NDP-α-MSH displacement observed at 10 μM, read-out: MC3R IC50
# [11] = Table 4, 50% specific binding (N = 4), NB = 0% of 125I-NDP-α-MSH displacement observed at 10 μM, read-out: MC4R IC50
# [12] = Table 4, 50% specific binding (N = 4), NB = 0% of 125I-NDP-α-MSH displacement observed at 10 μM, read-out: MC5R IC50
# [13] = Table 2, concentration of peptide at 50% specific binding (N = 4), tested 10^-10 to 10^-5 M, read-out: hMC3R IC50
# [14] = Table 2, concentration of peptide at 50% specific binding (N = 4), tested 10^-10 to 10^-5 M, read-out: hMC5R IC50
# [15] = 50% maximal intracellular cAMP accumulation (N = 4), tested 10^-10 to 10^-5 M
Compound,IC50 [1],"IC50 [2, 10]",MC3R % BE (Percent Binding Efficiency) ([2]; Table 4),"IC50 [3, 11]",MC4R % BE (Percent Binding Efficiency) ([3]; Table 4),"IC50 [4, 12]",MC5R % BE (Percent Binding Efficiency) ([4]; Table 4),MC1R % BE (Percent Binding Efficiency) [1],other results
CC(C)C[C@H](NC(=O)[C@@H](NC(=O)[C@@H](N)Cc1ccc(O)cc1)C(C)C)C(=O)NCC(=O)N[C@@H](Cc1c[nH]cn1)C(=O)N[C@@H](Cc1ccccc1)C(=O)N[C@@H](CCCNC(=N)N)C(=O)N[C@@H](Cc1c[nH]c2ccccc12)C(=O)N[C@@H](CC(=O)O)C(=O)N[C@@H](CCCNC(=N)N)C(=O)N[C@@H](Cc1ccccc1)C(=O)NCC(N)=O [SEQ ID NO. 9],198 nM,1620 nM,53%,1020 nM,100%,> 10000 nM,60%,–,–
"CCCC[C@H](NC(=O)[C@@H](NC(=O)[C@@H](N)Cc1ccc(O)cc1)C(C)C)C(=O)NCC(=O)N[C@@H](Cc1cnc[nH]1)C(=O)N[C@H](Cc1ccc2ccccc2c1)C(=O)N[C@@H](CCCN=C(N)N)C(=O)N[C@H](Cc1c[nH]c2ccccc12)C(=O)N[C@@H](CC(=O)O)C(=O)N[C@@H](CCCN=C(N)N)C(=O)N[C@@H](Cc1ccccc1)C(=O)NCC(N)=O [SEQ ID NO. 11, H-Tyr-Val-Nle-Gly-His-D-Nal(2′)-Arg-D-Trp-Asp-Arg-Phe-Gly-NH2]",–,–,–,–,–,–,–,–,"Emax [5]: 70%; half-life [6]: 52 min; EC50 [7]: 300 ± 6 nM; Emax ([7]; cAMP activity, read-out: hMC3R % max effect): 6%; Emax [8]: 6%; IC50 [2, 13]: 5 ± 0.6 nM; IC50 [4, 14]: 3.5 ± 0.5 nM"
"CCCC[C@H](NC(=O)[C@@H](NC(=O)[C@H](Cc1ccc(O)cc1)NC(C)=O)C(C)C)C(=O)NCC(=O)N[C@@H](Cc1c[nH]cn1)C(=O)N[C@H](Cc1ccccc1)C(=O)N[C@@H](CCCNC(=N)N)C(=O)N[C@@H](Cc1c[nH]c2ccccc12)C(=O)N[C@@H](CC(=O)O)C(=O)N[C@@H](CCCNC(=N)N)C(=O)N[C@@H](Cc1ccccc1)C(=O)NCC(N)=O [SEQ ID NO. 12, Ac-Tyr-Val-Nle-Gly-His-D-Phe-Arg-Trp-Asp-Arg-Phe-Gly-NH2, reference compound]",–,–,–,–,–,–,–,–,Emax [9]: 100%
H-YVLGHFLFDRFG-NH2 [SEQ ID NO. 5] [listing 1 of 2 here],–,–,45%,–,58%,–,0%,100%,"selectivity towards hMC1R (binding, versus hMC3R, hMC4R, hMC5R) [1]: highly selective for MC1R; selectivity towards hMC1R (binding, versus hMC3R, hMC4R, hMC5R) ([1]; listed as Peptide 5): significant selectivity towards hMC1R"
H-YVLGHFLFDRFG-NH2 [SEQ ID NO. 5] [listing 2 of 2 here],22 nM,> 10000 nM,–,3210 nM,–,–,–,–,–
H-YVLGHFLWDRFG-NH2 [SEQ ID NO. 4] [listing 1 of 2 here],–,–,26%,–,47%,–,57%,100%,–
H-YVLGHFLWDRFG-NH2 [SEQ ID NO. 4] [listing 2 of 2 here],1480 nM,1880 nM,–,> 10000 nM,–,7.3 nM,–,–,–
H-YVLGPFLFDRFG-NH2 [SEQ ID NO. 7],11 nM,1400 nM,47%,58 nM,36%,5.3 nM,34%,32%,–
H-YVLGPFLWDRFG-NH2 [SEQ ID NO. 6],–,40 nM,32%,13 nM,29%,1.7 nM,32%,–,–
H-YVLGPFRFDRFG-NH2 [SEQ ID NO. 3],–,1250 nM,33%,–,0%,–,0%,0%,–
H-YVLGPFRWDRFG-NH2 [SEQ ID NO. 2],–,165 nM,100%,76 nM,100%,67 nM,100%,–,–
H-YVMGPFRWDRFG-NH2 [SEQ ID NO. 10],–,–,–,–,–,–,–,–,"EC50 [7]: 0.33 ± 0.01 nM; EC50 [9, 15]: 100 ± 11 nM; Emax [9]: 99%; EC50 [8, 15]: 82 ± 10 nM; Emax [8]: 97%; IC50 [2, 13]: 6.7 ± 1 nM; IC50 ([3]; Table 2, concentration of peptide at 50% specific binding (N = 4), tested 10^-10 to 10^-5 M, read-out: hMC4R IC50): 600 ± 70 nM; IC50 [4, 14]: 340 ± 40 nM"
